Results published in patent US20230382900A1, “INHIBITORS OF BTK” (Newave Pharmaceutical Inc., priority 2020, published 2023).
Like-named read-outs stand apart in the source and are kept apart here.

Key:
human recombinant WT BTK = human recombinant WT BTK (Homo sapiens, UniProt Q06187); assay: Caliper-based biochemical enzymatic assay (IC50) against WT BTK; conditions: WT BTK 0.5 nM, ATP 16 μM, peptide substrate 1 μM, room temperature 3 h
Protocol: The reaction was then terminated with EDTA, final concentration 20 mM and the phosphorylated reaction product was quantified on a Caliper Desktop Profiler (Caliper LabChip 3000). Percent inhibition was calculated for each compound dilution and the concentration that produced 50% inhibition was calculated.

[1] = rats, treatment for longer than 7 days; cited from earlier work
[2] = dogs, even at higher doses; cited from earlier work
[3] = mice, even at higher doses; cited from earlier work
[4] = formulations containing GDC-0853; cited from earlier work

Chain of human recombinant WT BTK (Q06187 whole entry): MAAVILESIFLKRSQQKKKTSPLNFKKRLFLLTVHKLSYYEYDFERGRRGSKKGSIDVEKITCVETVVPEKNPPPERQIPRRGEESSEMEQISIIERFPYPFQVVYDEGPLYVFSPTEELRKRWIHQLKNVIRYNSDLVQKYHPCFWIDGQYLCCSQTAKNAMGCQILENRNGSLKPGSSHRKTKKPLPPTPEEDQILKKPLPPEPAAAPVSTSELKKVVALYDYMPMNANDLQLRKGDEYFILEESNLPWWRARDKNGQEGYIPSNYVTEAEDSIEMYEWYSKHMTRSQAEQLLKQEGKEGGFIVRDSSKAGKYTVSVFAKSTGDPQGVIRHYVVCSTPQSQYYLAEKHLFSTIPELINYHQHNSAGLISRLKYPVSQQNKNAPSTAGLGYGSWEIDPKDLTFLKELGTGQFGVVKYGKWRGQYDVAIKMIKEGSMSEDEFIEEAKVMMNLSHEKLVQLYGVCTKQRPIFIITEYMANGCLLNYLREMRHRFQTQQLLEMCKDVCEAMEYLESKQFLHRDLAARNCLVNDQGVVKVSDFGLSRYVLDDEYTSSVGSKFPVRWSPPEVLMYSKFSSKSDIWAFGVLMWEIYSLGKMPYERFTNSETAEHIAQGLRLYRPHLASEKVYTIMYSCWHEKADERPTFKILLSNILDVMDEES

Row | IC50 (human recombinant WT BTK) | SMILES | pancreatic toxicity [1] | pancreatic toxicity [2] | pancreatic toxicity [3] | tolerability in Phase I clinical trials [4]
1 | 0.64 nM | C=CC(=O)Nc1cc(Nc2nc(-c3ccnc(NC(=O)c4ccc(C(C)(C)C)cc4)c3CO)cn(C)c2=O)ccc1N1CCN(C2CCOCC2)C[C@@H]1C [Example 1, 4-tert-butyl-N-[3-(hydroxymethyl)-4-[4-methyl-6-([4-[(2S)-2-methyl-4-(oxan-4-yl)piperazin-1-yl]-3-(prop-2-enamido)phenyl]amino)-5-oxopyrazin-2-yl]pyridin-2-yl]benzamide] | – | – | – | –
2 | – | C[C@H]1CN(C2COC2)CCN1c1ccc(Nc2cc(-c3ccnc(N4CCn5c(cc6c5CC(C)(C)C6)C4=O)c3CO)cn(C)c2=O)nc1 [GDC-0853] | leads to pancreatic toxicity | does not occur | does not occur | well-tolerated
